Publication PMC6918269, “Caucasian Gentiana Species: Untargeted LC-MS Metabolic Profiling, Antioxidant and Digestive Enzyme Inhibiting Activity of Six Plants” (Metabolites, 2019)
≈ marks a conversion by molar mass, not a printed value. Where two headings read alike, the source gives them in different places. Marks after values point to notes of the source that are not given here.

Tests used:
[1] = HPLC-DAD assay coupled with pre-chromatographic reaction with DPPH radicals; format: biochemical; conditions: peak in G. asclepiadea herb extract, HPLC-DAD 210 nm
Experimental: Scavenging activity against DPPH radicals of gentian herb extracts were medium to high and varied from 147.57 mg trolox/g for G. paradoxa to 580.71 mg trolox/g for G. asclepiadea (Table 3). Extracts of gentian roots were characterized by mostly low activity, with activity values <10 mg trolox/g. […] Figure 9a,b show chromatograms of G. asclepiadea herb extract before and after reaction with DPPH radical. […]. Additional phenolic groups such as 2,3-dihydroxybenzoyl in iridoid structures of gelidoside (rindoside) and trifloroside can increase the radical scavenging potential, but not much (20.82–25.14 mg trolox/g).
Figure 9 HPLC-DAD chromatograms (210 nm) of G. asclepiadea herb extract before (a) and after (b) pre-chromatographic reaction with DPPH radicals and G. gelida roots extract before (c) and after (d) pre-chromatographic reaction with DPPH radicals. Zone of compounds numbered as follows: i—loganic acid; ii—swertiamarin; iii—isoorientin-2″-O-glucoside; iv—gentiopicroside; v—mangiferin; vi—isovitexin-2″-O-glucoside; vii—isoorientin; viii—saponarin; ix—isovitexin; x—luteolin-7-O-glucoside; xi—apigenin-7-O-glucoside; xii—gentiopicroside-6″-O-glucoside; xiii—gelidoside (rindoside); xiv—trifloroside. […] TEXT PRINTED IN THE PICTURE: (b) i: 3% | (b) iii: 72% | (b) iv: 5% | (b) v: 98% | (b) vii: 85% | (b) xi: 11% | (d) iv: 5% | (d) xiii: 8% | (d) xiv: 5% DOUBTS OF THE COPYIST ABOUT THIS PICTURE: The picture prints no measure with the percentages; only the bare % values are copied. / Panel d, 8% (arrow): taken as peak xiii, with 5% taken as xiv; peaks xiii and xiv lie close together, so the assignment is not fully certain. / Panel b, 98% (arrow): taken as peak v, which lies on the shoulder of iv. / The percentages are printed under traces (b) and (d) but compare (a) with (b) and (c) with (d), so the panel choice is uncertain.

[2] = superoxide anion radical scavenging assay; format: biochemical; conditions: for O2^-, superoxide anion-radical scavenging activity: (quercetin IC50/sample IC50) × 1000, average ± S.D., text prints mg quercetin/g
From the text: The known assay was used to determine superoxide anion radical scavenging activity. […] The IC50 value was found as the effective concentration at which superoxide anion radicals were scavenged by 50%. The value of antioxidant activity (A^O2•) against superoxide anion radicals was found as a ratio of quercetin IC50 to sample IC50 [A^O2• = (IC50^Quercetin/ IC50^Sample) × 1000] and expressed as mg of quercetin in 1 g of sample. Values are expressed as mean obtained from five independent experiments.

[3] = DPPH radical scavenging assay; format: biochemical; conditions: for DPPH, 2,2-diphenyl-1-picrylhydrazyl radical scavenging activity: (trolox IC50/sample IC50) × 1000, average ± S.D., text prints mg trolox/g
Experimental: The 2,2-diphenyl-1-picrylhydrazyl (DPPH) radical scavenging activity was performed as described earlier. […] The IC50 value was found as the effective concentration at which DPPH radicals were scavenged by 50%. The value of antioxidant activity (A^DPPH) against DPPH radicals was found as a ratio of trolox IC50 to sample IC50 [A^DPPH = (IC50^Trolox/ IC50^Sample) × 1000] and expressed as mg of trolox in 1 g of sample. Values are expressed as mean obtained from five independent experiments.

[4] = target: T1, α-amylase from Aspergillus oryzae (Aspergillus oryzae, UniProt P0C1B3); test: α-amylase inhibiting potential, spectrophotometric assay; format: biochemical; conditions: (acarbose IC50/sample IC50) × 1000, average ± S.D., text prints mg acarbose/g
T1 construct: purchased Sigma-Aldrich 10065
Experimental: (§1) The α-amylase inhibiting potential and α-glucosidase inhibiting potential were performed using spectrophotometric assays. The α-amylase from Aspergillus oryzae (3 U/mL) and α-glucosidase from Saccharomyces cerevisae (0.5 U/mL) were used as […]. […] Values are expressed as mean obtained from six independent experiments.

[5] = target: T2, α-glucosidase from Saccharomyces cerevisiae (Saccharomyces cerevisiae, UniProt P53341); test: α-glucosidase inhibiting potential, spectrophotometric assay; format: biochemical; conditions: (acarbose IC50/sample IC50) × 1000; average ± S.D.; text prints mg acarbose/g
T2 construct: purchased Sigma-Aldrich G5003
Experimental: as §1

[6] = lipid peroxidation inhibition assay; format: biochemical; conditions: for LPA, lipid peroxidation inhibition activity: (caffeic acid IC50/sample IC50) × 1000, average ± S.D., text prints mg caffeic acid/g
From the text: The previously described method was used to investigate the lipid peroxidation inhibition potency. […] The IC50 value was found as the effective sample concentration gave 50% reduction of optical density of initial solution. The value of lipid peroxidation inhibition (I) was found as a ratio of caffeic acid IC50 to sample IC50 [I = (IC50^Caffeic acid/ IC50^Sample) × 1000] and expressed as mg of caffeic acid in 1 g of sample. Values are expressed as mean obtained from five independent experiments.

[7] = set-up: method as in doi:10.1016/j.indcrop.2015.04.013; conditions: cited from earlier work
[8] = cited from earlier work
[9] = set-up: method as in doi:10.1016/j.indcrop.2015.04.013; conditions: G. cruciata (Serbia) study; cited from earlier work

T2 sequence (P53341 whole entry): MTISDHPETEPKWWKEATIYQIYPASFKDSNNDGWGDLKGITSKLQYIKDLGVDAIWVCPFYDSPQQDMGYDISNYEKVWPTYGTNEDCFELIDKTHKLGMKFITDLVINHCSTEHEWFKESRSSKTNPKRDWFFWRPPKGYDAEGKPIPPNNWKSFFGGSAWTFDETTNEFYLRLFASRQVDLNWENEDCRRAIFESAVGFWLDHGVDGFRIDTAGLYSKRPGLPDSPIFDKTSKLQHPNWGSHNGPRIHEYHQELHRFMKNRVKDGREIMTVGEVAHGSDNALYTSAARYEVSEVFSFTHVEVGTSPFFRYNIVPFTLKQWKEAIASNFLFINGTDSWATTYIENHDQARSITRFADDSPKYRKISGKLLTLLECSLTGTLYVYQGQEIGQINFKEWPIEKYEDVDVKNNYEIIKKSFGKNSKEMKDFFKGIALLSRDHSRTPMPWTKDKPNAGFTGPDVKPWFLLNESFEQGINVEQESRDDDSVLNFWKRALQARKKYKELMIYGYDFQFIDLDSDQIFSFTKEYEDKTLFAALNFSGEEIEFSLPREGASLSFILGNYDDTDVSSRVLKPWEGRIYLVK

## O=c1cc(-c2ccc(O)c(O)c2)oc2cc(O)c([C@@H]3O[C@H](CO)[C@@H](O)[C@H](O)[C@H]3O[C@@H]3O[C@H](CO)[C@@H](O)[C@H](O)[C@H]3O)c(O)c12 [isoorientin-2″-O-glucoside, Isoorientin-2″-O-Glc]
[1]
  percentage of peak area reduction after pre-chromatographic reaction with DPPH radicals: 72–98%

## O=c1c(O)c(-c2ccc(O)c(O)c2)oc2cc(O)cc(O)c12 [Quercetin, quercetin, reference compound]
[2]; positive control
  IC50, superoxide anion radicals scavenged by 50%: 21.74 ± 0.42 µg/mL (≈ 71.9 µM)

## O=c1c2cc(O)c(O)cc2oc2cc(O)c([C@@H]3O[C@H](CO)[C@@H](O)[C@H](O)[C@H]3O)c(O)c12 [Mangiferin]
[3]
  DPPH, 2,2-diphenyl-1-picrylhydrazyl radical scavenging activity: 3824.20 ± 76.48 ^viii mg of trolox per g of dry extract weight
[3]; listed as mangiferin
  DPPH, 2,2-diphenyl-1-picrylhydrazyl radical scavenging activity: 3824.20 mg of trolox per g of dry extr
[4]
  αAIP, α-amylase inhibitory potential: 296.14 ± 10.36 ^xxiv mg of acarbose per g of dry extract weight
[5]
  αGIP, α-glycosidase inhibitory potential: 1562.84 ± 62.48 ^xxxvii mg of acarbose per g of dry extract weight
[2]
  O2^-, superoxide anion-radical scavenging activity: 927.07 ± 18.54 ^xiv mg of quercetin per g of dry extract weight
[2]; listed as mangiferin
  O2^-, superoxide anion-radical scavenging activity: 927.07 mg of quercetin per g of dry e
[6]
  LPA, lipid peroxidation inhibition activity: 522.14 ± 20.85 ^xx mg of caffeic acid per g of dry extract weight
[6]; listed as mangiferin
  LPA, lipid peroxidation inhibition activity: 522.14 mg of caffeic acid per g of dr
[1]
  percentage of peak area reduction after pre-chromatographic reaction with DPPH radicals: 72–98%

## O=c1cc(-c2ccc(O)cc2)oc2cc(O)c([C@@H]3O[C@H](CO)[C@@H](O)[C@H](O)[C@H]3O)c(O)c12 [Isovitexin]
[3]
  DPPH, 2,2-diphenyl-1-picrylhydrazyl radical scavenging activity: 425.11 ± 8.50 ^v mg of trolox per g of dry extract weight
[4]
  αAIP, α-amylase inhibitory potential: 108.35 ± 3.79 ^xxii mg of acarbose per g of dry extract weight
[4]; listed as isovitexin
  αAIP, α-amylase inhibitory potential: medium
[2]
  O2^-, superoxide anion-radical scavenging activity: 211.63 ± 4.20 ^xii mg of quercetin per g of dry extract weight
[6]
  LPA, lipid peroxidation inhibition activity: 96.54 ± 3.73 ^xvii mg of caffeic acid per g of dry extract weight

## C[C@@H]1[C@H]2[C@H](O[C@@H]3O[C@H](CO)[C@@H](O)[C@H](O)[C@H]3O)OC=C(C(=O)O)[C@H]2C[C@@H]1O [Loganic Acid, Loganic acid]
[3]
  DPPH, 2,2-diphenyl-1-picrylhydrazyl radical scavenging activity: < 10.00 mg of trolox per g of dry extract weight
[3]; listed as loganic acid
  DPPH, 2,2-diphenyl-1-picrylhydrazyl radical scavenging activity: < 10 mg of trolox per g of dry extr
[4]
  αAIP, α-amylase inhibitory potential: < 10.00 mg of acarbose per g of dry extract weight
[5]
  αGIP, α-glycosidase inhibitory potential: < 10.00 mg of acarbose per g of dry extract weight
[2]
  O2^-, superoxide anion-radical scavenging activity: < 10.00 mg of quercetin per g of dry extract weight
[6]
  LPA, lipid peroxidation inhibition activity: < 10.00 mg of caffeic acid per g of dry extract weight
[1]
  percentage of peak area reduction after pre-chromatographic reaction with DPPH radicals: 3–5%

## Cc1cc(C(C)(C)C)c(O)c(C(C)(C)C)c1 [butylated hydroxytoluene]
[7]
  IC50, inhibitory activity toward lipid peroxidation: 1.00 µg/mL (≈ 4.54 µM)

## C=C[C@@H]1C2=CCOC(=O)C2=CO[C@H]1O[C@@H]1O[C@H](CO)[C@@H](O)[C@H](O)[C@H]1O [Gentiopicroside]
[3]
  DPPH, 2,2-diphenyl-1-picrylhydrazyl radical scavenging activity: < 10.00 mg of trolox per g of dry extract weight
[3]; listed as gentiopicroside
  DPPH, 2,2-diphenyl-1-picrylhydrazyl radical scavenging activity: < 10 mg of trolox per g of dry extr
[4]
  αAIP, α-amylase inhibitory potential: < 10.00 mg of acarbose per g of dry extract weight
[5]
  αGIP, α-glycosidase inhibitory potential: < 10.00 mg of acarbose per g of dry extract weight
[2]
  O2^-, superoxide anion-radical scavenging activity: < 10.00 mg of quercetin per g of dry extract weight
[6]
  LPA, lipid peroxidation inhibition activity: < 10.00 mg of caffeic acid per g of dry extract weight
[1]
  percentage of peak area reduction after pre-chromatographic reaction with DPPH radicals: 3–5%

## Cc1c(C)c2c(c(C)c1O)CCC(C)(C(=O)O)O2 (stereo not drawn) [trolox, reference compound]
[3]; positive control
  IC50, DPPH radicals scavenged by 50%: 11.62 ± 0.23 µg/mL (≈ 46.4 µM)

## O=c1cc(-c2ccc(O)c(O)c2)oc2cc(O)c([C@@H]3O[C@H](CO)[C@@H](O)[C@H](O)[C@H]3O)c(O)c12 [Isoorientin, Luteolin-6-C-Glc (isoorientin)]
[4]
  αAIP, α-amylase inhibitory potential: 1242.03 ± 44.71 ^xxviii mg of acarbose per g of dry extract weight
[5]
  αGIP, α-glycosidase inhibitory potential: 811.10 ± 32.44 ^xxxvi mg of acarbose per g of dry extract weight
[1]
  percentage of peak area reduction after pre-chromatographic reaction with DPPH radicals: 72–98%

## O=C(O)/C=C/c1ccc(O)c(O)c1 [Caffeic acid, caffeic acid, reference compound]
[6]; positive control
  IC50, lipid peroxidation inhibition: 58.96 ± 1.14 µg/mL (≈ 327 µM)

## O=C1O[C@H]([C@@H](O)CO)C(O)=C1O [ascorbic acid]
[8]; Serbian species G. asclepiadea study
  IC50 in the DPPH assay: 5.23 µg/mL (≈ 29.7 µM)
[8]; Serbian species G. cruciata study
  IC50 in the DPPH assay: 6.05 µg/mL (≈ 34.4 µM)

## O=C(O)c1cc(O)c(O)c(O)c1 [gallic acid]
[9]
  superoxide scavenging potential (IC50): 360 µg/mL
